Assay results from ChEMBL document CHEMBL4425086 (J Nat Prod, 2016).
Calls of active or inactive are those of the source. The rule behind the calls is not given here.

Key:
[1] = target: T1, Transient receptor potential cation channel subfamily A member 1 (Homo sapiens, UniProt O75762); experiment: Activation of human TRPA1 expressed in HEK293 cells assessed as increase in calcium level at 20 uM by fura2/AM dye based single cell based plate reader analysis
[2] = target: T1, Transient receptor potential cation channel subfamily A member 1; experiment: Activation of human TRPA1 expressed in HEK293 cells assessed as induction of inward current at 10 uM at -70 to +70 mV by whole cell patch clamp assay; format: cell-based
[3] = target: Transient receptor potential cation channel subfamily A member 1 (Mus musculus) (UniProt Q8BLA8); experiment: Activation of TRPA1 in wild type mouse DRG neurons assessed as increase in calcium level at 10 uM treated after 10 uM Plumbagin pre-treatment by fura2/AM dye based plate reader analysis relative to control
Chain of Transient receptor potential cation channel subfamily A member 1 (Mus musculus) (Q8BLA8 whole entry): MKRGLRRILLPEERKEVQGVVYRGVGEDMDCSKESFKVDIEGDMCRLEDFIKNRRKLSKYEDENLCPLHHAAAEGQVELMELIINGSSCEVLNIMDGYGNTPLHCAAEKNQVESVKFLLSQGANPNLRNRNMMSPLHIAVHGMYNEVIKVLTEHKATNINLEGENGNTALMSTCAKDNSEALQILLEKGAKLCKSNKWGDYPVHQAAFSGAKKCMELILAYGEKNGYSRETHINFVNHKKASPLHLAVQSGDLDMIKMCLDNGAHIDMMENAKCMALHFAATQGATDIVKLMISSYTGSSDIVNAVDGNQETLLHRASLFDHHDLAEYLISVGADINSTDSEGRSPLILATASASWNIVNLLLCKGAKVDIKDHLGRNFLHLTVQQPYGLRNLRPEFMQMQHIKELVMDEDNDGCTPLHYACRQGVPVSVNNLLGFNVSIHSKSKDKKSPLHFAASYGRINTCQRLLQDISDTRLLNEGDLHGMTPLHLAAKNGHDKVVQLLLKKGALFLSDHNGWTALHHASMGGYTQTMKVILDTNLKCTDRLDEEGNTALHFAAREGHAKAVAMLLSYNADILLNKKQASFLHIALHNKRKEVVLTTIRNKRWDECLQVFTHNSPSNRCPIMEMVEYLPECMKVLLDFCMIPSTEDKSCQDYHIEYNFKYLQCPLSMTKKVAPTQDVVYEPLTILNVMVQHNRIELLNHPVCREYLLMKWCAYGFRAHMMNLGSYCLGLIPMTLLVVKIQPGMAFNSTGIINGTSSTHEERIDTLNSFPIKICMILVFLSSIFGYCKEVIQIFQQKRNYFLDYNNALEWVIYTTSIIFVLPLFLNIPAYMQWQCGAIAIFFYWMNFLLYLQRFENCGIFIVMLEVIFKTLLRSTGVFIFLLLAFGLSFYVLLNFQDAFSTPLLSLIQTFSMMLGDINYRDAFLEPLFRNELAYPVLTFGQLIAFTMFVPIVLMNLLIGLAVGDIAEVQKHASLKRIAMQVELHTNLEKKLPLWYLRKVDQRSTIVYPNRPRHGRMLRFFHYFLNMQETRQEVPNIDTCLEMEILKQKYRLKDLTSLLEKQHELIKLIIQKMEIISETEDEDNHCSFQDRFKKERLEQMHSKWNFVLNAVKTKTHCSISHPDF

[4] = target: T1, Transient receptor potential cation channel subfamily A member 1; experiment: Activation of human TRPA1 expressed in HEK293 cells assessed as induction of outward current at 10 uM at -70 to +70 mV by whole cell patch clamp assay; format: cell-based
[5] = tested on: DRG neuron; experiment: Increase in calcium level in DRG neurons isolated from TRPA1 deficient mouse at 10 uM by fura2/AM dye based plate reader analysis; format: functional, cell-based
[6] = target: T1, Transient receptor potential cation channel subfamily A member 1; experiment: Activation of human TRPA1 expressed in HEK293 cells assessed as increase in calcium level at 20 uM in presence of TRPA1 channel blocker A-967079 by fura2/AM dye based single cell based plate reader analysis
[7] = tested on: HEK293; experiment: Increase in calcium level in HEK293 cells at 20 uM by fura2/AM dye based single cell based plate reader analysis; format: functional; settings: Homo sapiens
[8] = target: T1, Transient receptor potential cation channel subfamily A member 1; experiment: Activation of human TRPA1 expressed in HEK293 cells assessed as induction of current at 10 uM at -70 to +70 mV by whole cell patch clamp assay; format: cell-based
[9] = target: Transient receptor potential cation channel subfamily A member 1 (Mus musculus) (UniProt Q8BLA8); experiment: Activation of TRPA1 in wild type mouse DRG neurons assessed as increase in calcium level at 10 uM by fura2/AM dye based plate reader analysis relative to control
[10] = target: T1, Transient receptor potential cation channel subfamily A member 1; experiment: Activation of human TRPA1 expressed in HEK293 cells assessed as increase in calcium level by fluo-4 dye based plate reader analysis; format: cell-based
[11] = tested on: HEK293; experiment: Increase in calcium level in HEK293 cells at 0.1 to 100 uM by fluo-4 dye based plate reader analysis; format: functional, cell-based; settings: Homo sapiens
[12] = target: T1, Transient receptor potential cation channel subfamily A member 1; experiment: Activation of human TRPA1 expressed in HEK293 cells assessed as induction of inward current at 10 uM at -70 to +70 mV in presence of TRPA1 channel blocker A-967079 by whole cell patch clamp assay; format: cell-based
[13] = target: T1, Transient receptor potential cation channel subfamily A member 1; experiment: Activation of human TRPA1 expressed in HEK293 cells assessed as induction of outward current at 10 uM at -70 to +70 mV in presence of TRPA1 channel blocker A-967079 by whole cell patch clamp assay; format: cell-based
[14] = Lipophilicity, logP of compound; settings: octanol/water
[15] = target: T1, Transient receptor potential cation channel subfamily A member 1; experiment: Decrease in TRPA1 current amplitude in human TRPA1 expressed HEK293 cells at 10 uM at high voltage by whole cell patch clamp assay; format: cell-based
[16] = target: T1, Transient receptor potential cation channel subfamily A member 1; experiment: Activation of human TRPA1 expressed in HEK293 cells assessed as induction of current at 1 uM at -70 to +70 mV by whole cell patch clamp assay; format: cell-based
[17] = target: T1, Transient receptor potential cation channel subfamily A member 1; experiment: Activation of human TRPA1 expressed in HEK293 cells assessed as induction of current at 1 to 10 uM at +70 mV in presence of extracellular catalase by whole cell patch clamp assay; format: cell-based
[18] = target: T1, Transient receptor potential cation channel subfamily A member 1; experiment: Activation of human TRPA1 expressed in HEK293 cells assessed as induction of current at 1 to 10 uM at +70 mV in presence of intracellular catalase by whole cell patch clamp assay; format: cell-based

T1 sequence (O75762 whole entry): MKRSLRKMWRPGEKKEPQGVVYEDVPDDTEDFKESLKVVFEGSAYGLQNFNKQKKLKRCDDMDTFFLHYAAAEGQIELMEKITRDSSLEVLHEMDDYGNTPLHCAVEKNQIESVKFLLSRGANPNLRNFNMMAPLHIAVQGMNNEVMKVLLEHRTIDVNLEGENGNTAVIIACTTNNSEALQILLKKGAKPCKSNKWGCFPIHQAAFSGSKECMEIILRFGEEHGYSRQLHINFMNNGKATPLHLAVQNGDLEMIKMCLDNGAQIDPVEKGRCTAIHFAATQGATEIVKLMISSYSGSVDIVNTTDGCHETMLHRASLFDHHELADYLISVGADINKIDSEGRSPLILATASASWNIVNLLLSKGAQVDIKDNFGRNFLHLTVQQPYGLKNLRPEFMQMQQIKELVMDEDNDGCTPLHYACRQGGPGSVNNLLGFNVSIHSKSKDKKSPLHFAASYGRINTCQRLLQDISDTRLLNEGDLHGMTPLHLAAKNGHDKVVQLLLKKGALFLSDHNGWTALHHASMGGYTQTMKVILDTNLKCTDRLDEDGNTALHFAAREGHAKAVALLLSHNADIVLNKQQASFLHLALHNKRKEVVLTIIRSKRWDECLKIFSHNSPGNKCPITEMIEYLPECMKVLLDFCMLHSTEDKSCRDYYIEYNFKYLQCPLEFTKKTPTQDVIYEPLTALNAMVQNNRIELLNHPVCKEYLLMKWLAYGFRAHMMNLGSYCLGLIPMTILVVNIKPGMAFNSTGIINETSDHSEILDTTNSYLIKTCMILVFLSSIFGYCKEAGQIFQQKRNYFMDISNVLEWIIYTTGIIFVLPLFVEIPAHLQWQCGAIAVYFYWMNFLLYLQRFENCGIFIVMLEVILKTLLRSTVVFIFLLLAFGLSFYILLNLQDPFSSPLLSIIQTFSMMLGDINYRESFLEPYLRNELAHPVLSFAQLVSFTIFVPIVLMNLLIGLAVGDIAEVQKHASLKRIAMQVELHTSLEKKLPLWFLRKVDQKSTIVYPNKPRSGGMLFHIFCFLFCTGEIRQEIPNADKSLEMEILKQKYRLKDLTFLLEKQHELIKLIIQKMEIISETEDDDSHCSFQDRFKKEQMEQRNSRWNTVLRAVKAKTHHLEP

| SMILES | Activity [1] | Activity [6] | Activity [7] | EC50 [10] [nM] | also measured |
| --- | --- | --- | --- | --- | --- |
| C=CCN=C=S | Active |  |  |  | Activity [2]: Active; Activity [3]: inactive; Activity [4]: Active; Activity [5]: inactive |
| CC(C)=CCC/C(C)=C/COc1ccc2ccc(=O)oc2c1 | Active |  |  |  |  |
| COc1cc(/C=C/C(=O)O)ccc1OC/C=C(\C)CCC=C(C)C | Active |  |  |  |  |
| COc1cc(/C=C/C=O)ccc1OC/C=C(\C)CCC=C(C)C | Active | inactive | inactive |  |  |
| O=C1C=C(O)C(=O)c2ccccc21 | Active |  |  |  |  |
| COc1cc(/C=C/C=O)ccc1OCC=C(C)C [BOROPINAL] | Active | inactive | inactive | 9800 | Activity [8]: inactive; Activity [9]: inactive |
| O=C1C=CC(=O)c2c(O)cccc21 [JUGLONE] | Active | inactive | inactive | 1700 | Activity [11]: inactive; Activity [12]: inactive; Activity [2]: Active; Activity [4]: Active; Activity [13]: inactive |
| CC1=CC(=O)c2c(O)cccc2C1=O [PLUMBAGIN] | Active | inactive | inactive | 460 | logP [14]: 3.69; Activity [15]: Active; Activity [16]: inactive; Activity [17]: 65 pA/pF; Activity [18]: 93.5 pA/pF; Activity [9]: 50%; Activity [5]: inactive |
